From patent publication US5877019A, “Animal 2-5A-dependent RNases and encoding sequences therefor” (Cleveland Clinic Foundation, priority 1996, dated 1999)
“Also recorded” adds a separate entry of the source. Blank lines part the entries; values can stand above or below the molecule they belong to.

How the values were obtained:
2-5A-dependent RNase [1] = molecular target: T1, 2-5A-dependent RNase (Homo sapiens, UniProt Q05823); test: Divalent cation and ATP effects on 2-5A-dependent RNase activity of dialyzed enzyme; assay type: biochemical; conditions: EDTA/EGTA buffer
T1 sequence (Q05823 1-741): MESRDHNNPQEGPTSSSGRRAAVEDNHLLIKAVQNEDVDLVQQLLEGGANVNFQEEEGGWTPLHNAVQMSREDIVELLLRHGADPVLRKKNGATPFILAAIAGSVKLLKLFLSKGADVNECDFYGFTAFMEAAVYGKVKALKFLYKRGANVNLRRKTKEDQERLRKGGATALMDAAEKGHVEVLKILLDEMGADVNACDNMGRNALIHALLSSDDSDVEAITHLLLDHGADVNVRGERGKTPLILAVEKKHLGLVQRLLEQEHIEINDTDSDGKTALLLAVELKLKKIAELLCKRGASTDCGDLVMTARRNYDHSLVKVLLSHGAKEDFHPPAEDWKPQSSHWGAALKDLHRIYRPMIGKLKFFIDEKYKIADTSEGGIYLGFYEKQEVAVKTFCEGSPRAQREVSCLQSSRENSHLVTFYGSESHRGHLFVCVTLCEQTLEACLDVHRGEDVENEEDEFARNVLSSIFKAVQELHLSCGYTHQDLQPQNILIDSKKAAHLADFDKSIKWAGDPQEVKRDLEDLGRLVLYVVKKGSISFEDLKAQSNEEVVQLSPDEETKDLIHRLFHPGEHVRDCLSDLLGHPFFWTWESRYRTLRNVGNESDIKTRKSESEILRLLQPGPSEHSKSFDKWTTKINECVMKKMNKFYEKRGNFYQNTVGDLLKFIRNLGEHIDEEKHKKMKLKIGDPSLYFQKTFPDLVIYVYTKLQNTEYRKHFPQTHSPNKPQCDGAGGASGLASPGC
Protocol: (§1) The divalent cation requirements of 2-5A-dependent RNase were determined after extensive dialysis against buffer containing both EDTA and EGTA. More particularly, purified 2-5A-dependent RNase (about 100 μg in 100 μl), post-mono Q column fraction, was dialyzed at 4° C. against 25 mM Tris-HCl (pH 7.4), 2.5 mM EDTA, 2.5 mM EGTA, 14 mM 2-mercaptoethanol, and 100 mM KCl (first against 400 ml for four hours, then against 600 ml for ten hours, and finally against 200 ml of reaction buffer (EDTA and EGTA were reduced to 0.5 mM) for another four hours.
(§2) Activity assays were also performed in the presence of EDTA/EGTA to ensure the chelation of metal ions present in the reagents. […] For the filter binding assay, a ^32 P-labeled and bromine substituted 2-5A analog, p(A2'p)2 (br^8 A2'p)2 A3'-32P]Cp, 10,000 counts per minute per assay, at about 3,000 Ci per mmole, was incubated with fractions containing 2-5A-dependent RNase (or controls) at 4° C. for one hour.

2-5A-dependent RNase [2] = molecular target: T1, 2-5A-dependent RNase; test: Divalent cation and ATP effects on 2-5A binding activity of dialyzed enzyme; conditions: EDTA/EGTA buffer
Protocol: as §1, §2

[3] = system: human 2-5A-dependent RNase; conditions: purified enzyme, poly(rU) substrate; for concentration giving maximal activation of 2-5A-dependent RNase: 30 minutes 30° C.
[4] = system: murine 2-5A-dependent RNase; test: UV covalent crosslinking of 32P-2-5A probe in presence of unlabeled oligonucleotide competitors; assay type: binding; conditions: for competition with binding of the 2-5A probe: competitor 100 nM, recombinant 74 kDa protein (clone ZB1) in wheat germ extract, similar profile for L929 cell enzyme; for concentration of competitor that prevents 2-5A probe binding: probe 2.4 nM, both truncated recombinant (ZB1) and naturally occurring L cell protein
Protocol: FIG. 2A is a specific affinity of truncated murine 2-5A-dependent RNase for 2-5A. UV covalent crosslinking of the ^32 P-2-5A probe (lanes 1-7) to protein is performed after translation reactions in wheat germ extract (5 μl) with murine 2-5A-dependent RNase mRNA (from clone ZB1) (lanes 1-3) or without added RNA (lane 4) or in extract of interferon treated mouse L cells (100 μg of protein) (lanes 5-7). Reactions are without added competitor (lanes 1, 4, and 5) or in the presence of either trimer core. […] Lanes 8 and 9 are produced by incubating the wheat germ extract with ^35 S-methionine in the absence or presence of 2-5A-dependent RNase mRNA, respectively.
Autoradiograms of the dried SDS/10% polyacrylamide gels are shown. Concentrations of the oligonucleotide competitors are indicated. I is inosine.
The synthesis of the 2-5A probe, p(A2'p)2 (br^8 A2'p)2 A[32P]Cp, and its crosslinking to 2-5A-dependent RNase is performed exactly as described. See Nolan-Sorden, N. L. et al., Anal. Biochem., 184:298-304 (1990). Briefly, the 2-5A probe, about 0.7 to 2.5 nM at […], is incubated for about one hour on ice with cell extract prepared as described, Silverman, R. H. and Krause, D., I.R.L. Press, Oxford. England, pp. 149-193 (1987), in the absence or presence of unlabeled oligonucleotide competitors. Covalent crosslinking is done under a uv lamp (308 nm) for one hour on ice and the proteins are separated on SDS/10% polyacrylamide gels. Filter assays for 2-5A binding activity using the 2-5A probe for about one hour on ice, as described in Knight, M. et al., Nature, 288:189-192 (1980).

[5] = system: human 2-5A-dependent RNase; test: UV covalent crosslinking of 2-5A probe in presence of competitors; assay type: binding; conditions: competitor 100 nM; recombinant human enzyme in wheat germ extract; same pattern in HeLa cell extract
Protocol: FIG. 5A is specific affinity of recombinant human 2-5A-dependent RNase for 2-5A. Crosslinking of the 2-5A probe (lanes 1-7) to protein is performed after translation reactions in wheat germ extract (5 μl) with human 2-5A-dependent RNase mRNA (lanes 1-3) or without added RNA (lane 4) or in extract of human interferon α treated (1000 units per ml for 16 h) human HeLa cells (350 μg of protein) (lanes 5-7). […] Incubations with ^35 S-methionine are shown in lanes 8 to 12. Lane 8 is with wheat germ extract and human 2-5A-dependent RNase mRNA. Reticulocyte lysate preadsorbed to 2-5A-cellulose is incubated with human 2-5A-dependent RNase mRNA in the absence (lane 9) or presence (lane 10) of cycloheximide, or in the absence of added mRNA (lane 11). […] The positions and relative molecular masses (in kDa) of the marker proteins are indicated.
The synthesis of the 2-5A probe, p(A2'p)2 (br^8 A2'p)2 A[32P]Cp, and its crosslinking to 2-5A-dependent RNase is performed exactly as described. See Nolan-Sorden, N. L. et al., Anal. Biochem., 184:298-304 (1990). Briefly, the 2-5A probe, about 0.7 to 2.5 nM at […], is incubated for about one hour on ice with cell extract prepared as described, Silverman, R. H. and Krause, D., I.R.L. Press, Oxford. England, pp. 149-193 (1987), in the absence or presence of unlabeled oligonucleotide competitors. […]

[6] = system: human recombinant 2-5A-dependent RNase; test: 2-5A-dependent ribonuclease assay, crude extract of recombinant baculovirus-infected insect cells, poly(rU) degradation; conditions: activator at 100 nM, thirty minutes
2-5A probe = test: 2-5A binding activity of nested 3'-deletion clones (filter binding and uv crosslinking); conditions: protein expressed in wheat germ extract
From the text: See Example and Knight et al. (1980). The positions of the P-loop motifs and the lengths of the translation products are indicated. Clone ZB1 encodes for amino acids designated as 1-656 in Table II, except for the last 5 amino acid residues which are Lys, Pro, Leu, Ser, and Gly. Clone ZB2 encodes for amino acids designated as 1-619 in Table II. Clone ZB3 encodes for amino acids designated as 1-515 in Table II. Clone ZB5 encodes for amino acids designated as 1-474 in Table II. Clone ZB9 encodes for amino acids designated as 1-403 in Table II. Clone ZB10 encodes for amino acids designated as 1-365 in Table II. Clone ZB13 encodes for amino acids designated as 1-294 in Table II. Clone ZB14 encodes for amino acids designated as 1-265 in Table II. Clone ZB15 encodes for amino acids designated as 1-218 in Table II.
To further define sequences involved in 2-5A binding, nested 3'-deletions of the murine 2-5A-dependent RNase cDNA, clone ZB1, are constructed, transcribed in vitro, and expressed in a wheat germ extract. […] The levels of 2-5A binding activity are determined with the 2-5A probe in both a filter binding assay, Knight, M. et al., Nature, 288:189-192 (1980), and the uv crosslinking assay, Nolan-Sorden, N. L. et al., Anal. Biochem., 184:298-304 (1990), with similar results. Expression of clone ZB11, encoding amino acid residues 1 to 342, results in a loss of only about 26% of the 2-5A binding activity as compared to clone ZB1 (amino acids 1 to 656). Clones intermediate in length between ZB1 and ZB11 all result in significant levels of 2-5A binding activity. […] See also Saraste, M. et al., TIBS, 14:430-434 (1990).
The set of nested 3'-deletions of the truncated murine 2-5A-dependent RNase cDNA, ZB1, is generated with exonuclease III/S1 nuclease digestion followed by filling-in with Klenow DNA Polymerase using the "Erase-A-Base"system (Promega).
The synthesis of the 2-5A probe, p(A2'p)2 (br^8 A2'p)2 A[32P]Cp, and its crosslinking to 2-5A-dependent RNase is performed exactly as described. See Nolan-Sorden, N. L. et al., Anal. Biochem., 184:298-304 (1990). […]

Molecule: [Zn+2] [zinc]
- effect on 2-5A-dependent RNase activity (2-5A-dependent RNase [1]): inhibitory
- effect on 2-5A-binding activity (2-5A-dependent RNase [2]): enhanced

Molecule: A(2'p5'A)3
- activation of 2-5A-dependent RNase (in words) [3]: enhanced activity

Molecule: (A2'p)2 A
- fold higher concentration than trimer 2-5A required to prevent probe binding ([4]; both proteins): 500 fold
- competition with binding of the 2-5A probe [4]: fails to interfere
- concentration of competitor that prevents 2-5A probe binding [4]: 10 µM
- competition with binding of the 2-5A probe [5]: not prevented
- fold reduced activity as activator relative to 2-5A (5'-triphosphorylated trimer) [3]: more than 100 fold

Molecule: p3 (A2'p)2 A
- competition with binding of the 2-5A probe [4]: completely prevents probe binding
- concentration of competitor that prevents 2-5A probe binding [4]: about 20 nM
- competition with binding of the 2-5A probe [5]: effectively competes
- concentration giving maximal activation of 2-5A-dependent RNase [3]: 1 nM
- RNA (poly(rU)) degraded [6]: 93%

Molecule: pA(2'p5'A)3
- concentration giving maximal activation of 2-5A-dependent RNase [3]: 1 nM

Molecule: pppA(2'p5'A)3
- concentration giving maximal activation of 2-5A-dependent RNase [3]: 1 nM

Molecule: A(2'p5'A)4
- activation of 2-5A-dependent RNase (in words) [3]: enhanced activity

B1: clone ZB11: murine 2-5A-dependent RNase deletion, amino acid residues 1 to 342 (protein, UniProt Q05921 1-342, looked up, fragment)
chain: METPDYNTPQGGTPSAGSQRTVVEDDSSLIKAVQKGDVVRVQQLLEKGADANACEDTWGWTPLHNAVQAGRVDIVNLLLSHGADPHRRKKNGATPFIIAGIQGDVKLLEILLSCGADVNECDENGFTAFMEAAERGNAEALRFLFAKGANVNLRRQTTKDKRRLKQGGATALMSAAEKGHLEVLRILLNDMKAEVDARDNMGRNALIRTLLNWDCENVEEITSILIQHGADVNVRGERGKTPLIAAVERKHTGLVQMLLSREGINIDARDNEGKTALLIAVDKQLKEIVQLLLEKGADKCDDLVWIARRNHDYHLVKLLLPYVANPDTDPPAGDWSPHSSRW
- loss of 2-5A binding activity as compared to clone ZB1 (2-5A probe): about 26%

Continued, in another order:

- effect on 2-5A-dependent RNase activity (2-5A-dependent RNase [1]): greatly stimulated
- effect on 2-5A-binding activity (2-5A-dependent RNase [2]): greatly stimulated
Molecule: [Mn+2] [manganese]

- effect on 2-5A-binding activity (2-5A-dependent RNase [2]): enhanced
Molecule: [Ca+2] [calcium]
- effect on 2-5A-dependent RNase activity (2-5A-dependent RNase [1]): no effect; also recorded: did not enhance ribonuclease activity

- effect on 2-5A-dependent RNase activity (2-5A-dependent RNase [1]): greatly stimulated
- effect on 2-5A-binding activity (2-5A-dependent RNase [2]): greatly stimulated
Molecule: [Mg+2] [magnesium]

- concentration of competitor that prevents 2-5A probe binding [4]: about 1.0 μM
- activation of 2-5A-dependent RNase (in words) [3]: more than ten-fold less effective
- fold reduced activity as activator relative to 2-5A (5'-triphosphorylated trimer) [3]: 10 fold
Molecule: p3 I2'pA2'pA

- 2-5A binding activity, % of the activity of clone ZB1 (2-5A probe): completely lacking
B2: clone ZB15: murine 2-5A-dependent RNase deletion, amino acids 1 to 218, both P-loop motifs deleted (protein, UniProt Q05921 1-218, looked up, fragment)
chain: METPDYNTPQGGTPSAGSQRTVVEDDSSLIKAVQKGDVVRVQQLLEKGADANACEDTWGWTPLHNAVQAGRVDIVNLLLSHGADPHRRKKNGATPFIIAGIQGDVKLLEILLSCGADVNECDENGFTAFMEAAERGNAEALRFLFAKGANVNLRRQTTKDKRRLKQGGATALMSAAEKGHLEVLRILLNDMKAEVDARDNMGRNALIRTLLNWDCENV

- 2-5A binding activity, % of the activity of clone ZB1 (2-5A probe): about 38.3%
B3: clone ZB13: murine 2-5A-dependent RNase deletion, amino acids 1 to 294 (protein, UniProt Q05921 1-294, looked up, fragment)
chain: METPDYNTPQGGTPSAGSQRTVVEDDSSLIKAVQKGDVVRVQQLLEKGADANACEDTWGWTPLHNAVQAGRVDIVNLLLSHGADPHRRKKNGATPFIIAGIQGDVKLLEILLSCGADVNECDENGFTAFMEAAERGNAEALRFLFAKGANVNLRRQTTKDKRRLKQGGATALMSAAEKGHLEVLRILLNDMKAEVDARDNMGRNALIRTLLNWDCENVEEITSILIQHGADVNVRGERGKTPLIAAVERKHTGLVQMLLSREGINIDARDNEGKTALLIAVDKQLKEIVQLLLE
